These results are taken from patent US10800807B2, “TGR5 modulators and methods of use thereof” (Intercept Pharmaceuticals, Inc., priority 2015, dated 2020).

One assay addresses T1, mTGR5 (Mus musculus, UniProt Q80SS6).
T1 construct: expressed in transfected cells; host or cells: CHO-Pi10 clone 4
T1 sequence (Q80SS6 1-329): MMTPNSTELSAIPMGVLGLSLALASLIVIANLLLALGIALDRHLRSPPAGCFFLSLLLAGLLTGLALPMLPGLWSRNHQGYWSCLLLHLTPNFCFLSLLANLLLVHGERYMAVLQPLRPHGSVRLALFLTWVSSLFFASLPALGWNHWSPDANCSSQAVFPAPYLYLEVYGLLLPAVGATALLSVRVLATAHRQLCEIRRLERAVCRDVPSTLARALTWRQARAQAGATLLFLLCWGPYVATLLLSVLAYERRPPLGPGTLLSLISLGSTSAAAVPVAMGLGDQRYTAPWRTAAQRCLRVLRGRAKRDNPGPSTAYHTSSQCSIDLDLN
Put plainly: TGR5 activity: cAMP in mTGR5 CHO-Pi10 clone 4 cells. The class given is cell-based. To be noted: for Emax: 0.5 h, read-out: (mTGR5 CHO) Efficacy.

The target in assay [1] is T2, human glutathione transferase-tagged FXR-LBD (Homo sapiens, UniProt Q96RI1).
T2 construct: human glutathione transferase-tagged FXR-LBD (Life Technologies, USA); purchased Life Technologies, USA
T2 sequence (Q96RI1 262-486 limits assumed): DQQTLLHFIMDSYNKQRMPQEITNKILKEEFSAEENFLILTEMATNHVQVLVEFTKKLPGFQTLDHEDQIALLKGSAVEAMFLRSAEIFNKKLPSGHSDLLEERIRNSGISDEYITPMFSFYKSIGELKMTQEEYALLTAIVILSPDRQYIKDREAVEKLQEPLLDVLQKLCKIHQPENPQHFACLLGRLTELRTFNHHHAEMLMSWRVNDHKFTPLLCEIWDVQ
Put plainly: FXR AlphaScreen coactivator recruitment assay (human).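 On hFXR Efficacy: CDCA at 50 µM taken as 100%.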 The class given is biochemical. On the set-up: Emax: dose or concentration left out as unconfirmed. The settings on record: for EC50: human FXR-LBD, AlphaScreen, read-out: hFXR EC50; for Emax: read-out: hFXR Efficacy. Here is the method: (§1) Activation of the FXR receptor was determined using a recruitment coactivator assay, namely AlphaScreen technology. The assays were performed using human glutathione transferase-tagged FXR-LBD (Life Technologies, USA) and mouse glutathione transferase-tagged FXR-LBD (generated in-house). Briefly, assays were conducted in white, low-volume, 384-well OptiPlate using a final volume of 25 μL containing 10 nM glutathione transferase-tagged FXR-LBD protein and 30 nM biotinylated Src-1 peptide. The stimulation was carried out with different BA concentrations for 30 minutes at 25° C. […] Dose-response curves were performed in triplicate and Z′ factor was used to validate the robustness of the assay.

For assay [2], the target named is T3, mouse glutathione transferase-tagged FXR-LBD (Mus musculus, UniProt Q60641).
T3 construct: mouse glutathione transferase-tagged FXR-LBD (generated in-house); made in house
T3 sequence (Q60641 264-488 limits assumed): T2 sequence (Q96RI1 262-486 limits assumed) with H7D, F8Y, N46S, V50I, S95A, S98A, N107K, I125V, I174M, H175Y
Put plainly: FXR AlphaScreen coactivator recruitment assay (mouse). The settings on record: for EC50: read-out: (mFXR) EC50; for Emax: read-out: (mFXR) Efficacy. It counts as biochemical. Here is the method: as §1

In assay [3] the target is T4, TGR5 (Homo sapiens, UniProt Q8TDU6).
T4 sequence (Q8TDU6 1-330): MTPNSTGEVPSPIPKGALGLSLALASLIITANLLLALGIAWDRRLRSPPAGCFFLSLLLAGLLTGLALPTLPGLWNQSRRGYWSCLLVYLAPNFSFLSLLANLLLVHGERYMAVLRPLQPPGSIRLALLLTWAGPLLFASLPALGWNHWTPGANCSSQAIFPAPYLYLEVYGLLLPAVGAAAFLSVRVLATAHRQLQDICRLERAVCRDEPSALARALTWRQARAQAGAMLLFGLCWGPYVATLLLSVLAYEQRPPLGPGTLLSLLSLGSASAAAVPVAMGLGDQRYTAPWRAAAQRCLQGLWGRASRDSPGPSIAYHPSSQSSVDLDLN
Put plainly: TGR5 activity: intracellular cAMP levels, NCI-H716 cells (HTR-FRET). The class given is cell-based. Also noted: endogenous in cells; host or cells: NCI-H716. The settings on record: for Emax: read-out: TGR5 (NCI-H716) Efficacy; for EC50: cAMP. Here is the method:
Activation of TGR5 was assessed by measuring the level of cAMP using an HTR-FRET assay. Thus, NCI-H716 cells were cultured on 96-well plates coated with Matrigel (Corning, USA) (0.75 mg/ml) in DMEM supplemented with 10% FCS, 100 units/ml penicillin, and 100 μg/ml streptomycin sulphate. […] The level of intracellular cAMP was determined with Lance kit. Z′ factor was used to validate assays.

Assay [4] concerns the target T4, TGR5. Put plainly: TGR5 activity: cAMP in hTGR5 CHO-k1 cells. It counts as cell-based. Also noted: expressed in transfected cells; host or cells: CHO-k1. The settings on record: for Emax: 0.5 h, read-out: hTGR5 CHO Efficacy; for EC50: cAMP.
The mark [5] stands for this setting: mTGR5 CHO cells, value in parentheses.
[6] abbreviates: mouse FXR-LBD, value in parentheses.
The mark [7] stands for this setting: 1 h, NCI-H716 cells, Ref. LCA 100% at 10 μM.
Setting [8] is: hTGR5 CHO cells, Ref. LCA 100% at 10 μM.

Positions count from the first letter of the chain named. Where two headings read alike, the source gives them in different places.

Consider `CC[C@H]1[C@@H](O)[C@@H]2[C@H](C[C@H](O)[C@]3(C)[C@@H]([C@H](C)C[C@H](O)C(=O)O)CC[C@@H]23)[C@@]2(C)CC[C@@H](O)C[C@@H]12` [Compound 1, 3α,7α,12α,23(S)-tetrahydroxy-6α-ethyl-5β-cholan-24-oic acid], for which the Emax at mTGR5 (setting [5]) is 115%; in assay [1], 52%; in assay [2] (setting [6]), 9%; at TGR5 [3] (setting [7]), 40%; at TGR5 [4] (setting [8]), 103 ± 1%. For the same compound, the EC50 on mTGR5 (setting [5]) came to 700 nM; in assay [1], 32000 ± 8000 nM; in assay [2] (setting [6]) it was 146000 nM; at TGR5 [3] (NCI-H716 cells), 19000 nM; on TGR5 [4] (hTGR5 CHO cells) it was 3500 ± 1500 nM.

Regarding `CC[C@H]1[C@@H](O)[C@@H]2[C@H](C[C@H](O)[C@]3(C)[C@@H]([C@H](C)C[C@@H](O)C(=O)O)CC[C@@H]23)[C@@]2(C)CC[C@@H](O)C[C@@H]12` [Compound 2, 3α,7α,12α,23(R)-tetrahydroxy-6α-ethyl-5β-cholan-24-oic acid], the Emax at mTGR5 (setting [5]) worked out at 93.5%; in assay [1], 200%; in assay [2] (setting [6]), 61%; at TGR5 [3] (setting [7]) it was 55%; on TGR5 [4] (setting [8]), 47.5 ± 2.5%. Moreover, the EC50 on mTGR5 (setting [5]) is 1500 nM; in assay [1], 20000 ± 9000 nM; in assay [2] (setting [6]), 84000 nM; at TGR5 [3] (NCI-H716 cells), 12000 nM; at TGR5 [4] (hTGR5 CHO cells) it was 17000 ± 2000 nM.

Take `CC[C@H]1[C@@H](O)C2C3CC[C@H]([C@H](C)C[C@H](CO)C(=O)O)[C@@]3(C)[C@@H](O)CC2[C@@]2(C)CC[C@@H](O)C[C@@H]12` (stereo partly drawn) [Compound 5, 3α,7α,12α-Trihydroxy-6α-ethyl-23(B)-hydroxymethyl-5β-cholan-24-oic acid]: the Emax on mTGR5 (CHO) was found to be 84.6%; in assay [1], 37%; on TGR5 [4] (CHO), 43.6%. For the same compound, the EC50 on mTGR5 (setting [5]) worked out at 3400 nM; in assay [1] it was 20000 nM; at TGR5 [4] (hTGR5 CHO cells) it was 21000 nM.

Turning to `CC[C@H]1[C@@H](O)[C@@H]2[C@H](C[C@H](O)[C@]3(C)[C@@H]([C@H](C)C[C@@H](CF)C(=O)O)CC[C@@H]23)[C@@]2(C)CC[C@@H](O)C[C@@H]12` [Compound 6, 3α,7α,12α-Trihydroxy-6α-ethyl-23(A)-fluoromethyl-fluoromethyl-5β-cholan-24-oic acid], the figures for the Emax on mTGR5 (CHO) and on TGR5 [4] (CHO) were 81% and 28%, respectively. Further, the EC50 is 3800 nM on mTGR5 (setting [5]), more than 100000 nM in assay [1] and 29500 nM at TGR5 [4] (hTGR5 CHO cells).

In the case of `CC[C@H]1[C@@H](O)[C@@H]2[C@H](C[C@H](O)[C@]3(C)[C@@H]([C@H](C)C[C@H](CF)C(=O)O)CC[C@@H]23)[C@@]2(C)CC[C@@H](O)C[C@@H]12` [Compound 7, 3α,7α,12α-Trihydroxy-6α-ethyl-23(A)-fluoromethyl-fluoromethyl-5β-cholan-24-oic acid], the Emax on mTGR5 (setting [5]) worked out at 119%; in assay [1], 83%; on TGR5 [4] (setting [8]), 27%. The EC50 at mTGR5 (setting [5]) worked out at 2000 nM; in assay [1] it was 13000 nM; on TGR5 [4] (hTGR5 CHO cells), 7900 nM.

In the case of `CC[C@@H]1C2C[C@H](O)CC[C@]2(C)C2CC[C@@]3(C)C(CC[C@@H]3[C@H](C)Cc3nn[nH]n3)C2[C@@H]1O` (stereo partly drawn) [Compound 13], the Emax is 90% on mTGR5 (setting [5]); 138% in assay [1]; 208% in assay [2] (setting [6]); 84 ± 14% on TGR5 [3] (setting [7]); 102 ± 3% on TGR5 [4] (setting [8]). Further, the EC50 amounted to 2300 nM on mTGR5 (setting [5]); 430 nM in assay [1]; 1400 nM in assay [2] (setting [6]); 6400 ± 1100 nM on TGR5 [3] (NCI-H716 cells); 1000 ± 100 nM at TGR5 [4] (hTGR5 CHO cells).

In the case of `CC[C@H]1[C@@H](O)C2C3CC[C@H]([C@H](C)CCc4noc(=O)[nH]4)[C@@]3(C)CCC2[C@@]2(C)CC[C@@H](O)C[C@@H]12` (stereo partly drawn) [Compound 16, 3α,7α-Dihydroxy-6α-ethyl-24-nor-5β-23([1,2,4]-oxadiazole-3-one-5-yl)-cholane], the Emax on mTGR5 (setting [5]) was determined as 99%; in assay [1], 165 ± 19%; in assay [2] (setting [6]) it was 204%; at TGR5 [3] (setting [7]), 116 ± 9%; at TGR5 [4] (setting [8]), 99 ± 4%. Moreover, the 50% effective concentration (EC50) on mTGR5 (setting [5]) came out at 440 nM; in assay [1], 150 ± 50 nM; in assay [2] (setting [6]) it was 6600 nM; at TGR5 [3] (NCI-H716 cells), 3000 ± 300 nM; at TGR5 [4] (hTGR5 CHO cells) it was 1200 ± 100 nM.

Consider `CC[C@H]1[C@@H](O)[C@@H]2[C@H](CC[C@]3(C)[C@@H]([C@H](C)CCc4nc(=O)o[nH]4)[C@@H](O)C[C@@H]23)[C@@]2(C)CC[C@@H](O)C[C@@H]12` [Compound 18], for which the Emax at mTGR5 (setting [5]) worked out at 101%; in assay [1], 132 ± 8%; in assay [2] (setting [6]) it was 150%; on TGR5 [3] (setting [7]) it was 115 ± 4%; on TGR5 [4] (setting [8]), 104 ± 1%. For the same compound, the 50% effective concentration (EC50) stood at 370 nM on mTGR5 (setting [5]); 550 ± 30 nM in assay [1]; 2300 nM in assay [2] (setting [6]); 1800 ± 200 nM at TGR5 [3] (NCI-H716 cells); 110 ± 30 nM at TGR5 [4] (hTGR5 CHO cells).

For `CC[C@H]1[C@@H](O)C2C3CC[C@H]([C@H](C)CC(=O)NO)[C@@]3(C)CCC2[C@@]2(C)CC[C@@H](O)C[C@@H]12` (stereo partly drawn) [Compound 20], the Emax on mTGR5 (setting [5]) is 101%; in assay [1], 122 ± 3%; in assay [2] (setting [6]), 85%; on TGR5 [3] (setting [7]) it was 148 ± 1%; at TGR5 [4] (setting [8]) it was 109 ± 5%. Moreover, the half-maximal effective concentration (EC50) on mTGR5 (setting [5]) was found to be 500 nM; in assay [1], 8700 ± 40 nM; in assay [2] (setting [6]), 16000 nM; at TGR5 [3] (NCI-H716 cells), 700 ± 100 nM; at TGR5 [4] (hTGR5 CHO cells), 300 ± 140 nM.

As to `CC[C@H]1[C@@H](O)C2C3CC[C@H]([C@H](C)CCc4nnc(NS(C)(=O)=O)o4)[C@@]3(C)CCC2[C@@]2(C)CC[C@@H](O)C[C@@H]12` (stereo partly drawn) [Compound 23, 2-(3α,7α-Dihydroxy-6α-ethyl-5β-cholan-24-nor-23-cholanyl)-5-methylsulfonamido-1,3,4-oxadiazole], the Emax at mTGR5 (CHO) came to 110%; in assay [1], 175 ± 22%; in assay [2] it was 342%; on TGR5 [3] (NCI-H716, 1 h) it was 75 ± 1%; at TGR5 [4] (CHO), 111 ± 2%. The concentration giving a half-maximal response (EC50) on mTGR5 (setting [5]) worked out at 1400 nM; in assay [1] it was 100 ± 20 nM; in assay [2] (setting [6]), 330 nM; on TGR5 [3] (NCI-H716 cells), 12500 ± 1500 nM; on TGR5 [4] (hTGR5 CHO cells), 1300 ± 100 nM.
